Measurements from ChEMBL document CHEMBL4270577, “Synthesis, anticancer activity and molecular modeling studies of 1,2,4-triazole derivatives as EGFR inhibitors” (Eur J Med Chem, 2018).

Assays:
CCRF-CEM = assay: Growth inhibition of human CCRF-CEM cells at 10 uM incubated for 48 hrs by sulforhodamine B assay relative to control; assay type: functional; settings: read-out: GI
K562 = assay: Growth inhibition of human K562 cells at 10 uM incubated for 48 hrs by sulforhodamine B assay relative to control; assay type: functional; settings: K562, 48 h, read-out: GI
NCI-H522 = assay: Growth inhibition of human NCI-H522 cells at 10 uM incubated for 48 hrs by sulforhodamine B assay relative to control; assay type: functional; settings: NCI-H522, 48 h, read-out: GI
COLO 205 = assay: Growth inhibition of human COLO205 cells at 10 uM incubated for 48 hrs by sulforhodamine B assay relative to control; assay type: functional; settings: COLO 205, 48 h, read-out: GI
HCT-116 = assay: Growth inhibition of human HCT116 cells at 10 uM incubated for 48 hrs by sulforhodamine B assay relative to control; assay type: functional; settings: HCT-116, 48 h, read-out: GI
SF-295 = assay: Growth inhibition of human SF295 cells at 10 uM incubated for 48 hrs by sulforhodamine B assay relative to control; assay type: functional; settings: SF-295, 48 h, read-out: GI
SNB-19 = assay: Growth inhibition of human SNB19 cells at 10 uM incubated for 48 hrs by sulforhodamine B assay relative to control; assay type: functional; settings: SNB-19, 48 h, read-out: GI
LOX IMVI = assay: Growth inhibition of human LOXIMVI cells at 10 uM incubated for 48 hrs by sulforhodamine B assay relative to control; assay type: functional; settings: read-out: GI
UACC-257 = assay: Growth inhibition of human UACC257 cells at 10 uM incubated for 48 hrs by sulforhodamine B assay relative to control; assay type: functional; settings: UACC-257, 48 h, read-out: GI
UACC-62 = assay: Growth inhibition of human UACC62 cells at 10 uM incubated for 48 hrs by sulforhodamine B assay relative to control; assay type: functional; settings: UACC-62, 48 h, read-out: GI
OVCAR-3 [1] = assay: Growth inhibition of human OVCAR3 cells at 10 uM incubated for 48 hrs by sulforhodamine B assay relative to control; assay type: functional; settings: OVCAR-3, 48 h, read-out: GI
OVCAR-4 = assay: Growth inhibition of human OVCAR4 cells at 10 uM incubated for 48 hrs by sulforhodamine B assay relative to control; assay type: functional; settings: OVCAR-4, 48 h, read-out: GI
SK-OV-3 = assay: Growth inhibition of human SKOV3 cells at 10 uM incubated for 48 hrs by sulforhodamine B assay relative to control; assay type: functional; settings: SK-OV-3, 48 h, read-out: GI
A498 = assay: Growth inhibition of human A498 cells at 10 uM incubated for 48 hrs by sulforhodamine B assay relative to control; assay type: functional; settings: A498, 48 h, read-out: GI
SN12C = assay: Growth inhibition of human SN12C cells at 10 uM incubated for 48 hrs by sulforhodamine B assay relative to control; assay type: functional; settings: read-out: GI
TK-10 = assay: Growth inhibition of human TK10 cells at 10 uM incubated for 48 hrs by sulforhodamine B assay relative to control; assay type: functional; settings: TK-10, 48 h, read-out: GI
DU-145 [2] = assay: Growth inhibition of human DU145 cells at 10 uM incubated for 48 hrs by sulforhodamine B assay relative to control; assay type: functional; settings: DU-145, 48 h, read-out: GI
Hs-578T = assay: Growth inhibition of human Hs 578T cells at 10 uM incubated for 48 hrs by sulforhodamine B assay relative to control; assay type: functional; settings: read-out: GI
T47D = assay: Growth inhibition of human T47D cells at 10 uM incubated for 48 hrs by sulforhodamine B assay relative to control; assay type: functional; settings: read-out: GI
MDA-MB-468 = assay: Growth inhibition of human MDA-MB-468 cells at 10 uM incubated for 48 hrs by sulforhodamine B assay relative to control; assay type: functional; settings: MDA-MB-468, 48 h, read-out: GI
EKVX = assay: Cytotoxicity against human EKVX cells incubated for 48 hrs by sulforhodamine B assay; assay type: functional
HOP-92 = assay: Cytotoxicity against human HOP92 cells incubated for 48 hrs by sulforhodamine B assay; assay type: functional; settings: HOP-92, 48 h
NCI-H460 [3] = assay: Cytotoxicity against human NCI-H460 cells incubated for 48 hrs by sulforhodamine B assay; assay type: functional; settings: NCI-H460, 48 h
MDA-MB-435 = assay: Cytotoxicity against human MDA-MB-435 cells incubated for 48 hrs by sulforhodamine B assay; assay type: functional; settings: MDA-MB-435, 48 h
OVCAR-3 [4] = assay: Cytotoxicity against human OVCAR3 cells incubated for 48 hrs by sulforhodamine B assay; assay type: functional; settings: OVCAR-3, 48 h
ACHN = assay: Cytotoxicity against human ACHN cells incubated for 48 hrs by sulforhodamine B assay; assay type: functional
PC-3 = assay: Cytotoxicity against human PC3 cells incubated for 48 hrs by sulforhodamine B assay; assay type: functional; settings: PC-3, 48 h
DU-145 [5] = assay: Cytotoxicity against human DU145 cells incubated for 48 hrs by sulforhodamine B assay; assay type: functional; settings: DU-145, 48 h
MIA PaCa-2 = assay: Antiproliferative activity against human MIAPaCa2 cells after 48 hrs by propidium iodide staining-based fluorometric analysis; assay type: functional, cell-based; settings: MIA PaCa-2, 48 h
HT-29 = assay: Antiproliferative activity against human HT-29 cells after 48 hrs by propidium iodide staining-based fluorometric analysis; assay type: functional, cell-based; settings: HT-29, 48 h
NCI-H460 [6] = assay: Antiproliferative activity against human H460 cells after 48 hrs by propidium iodide staining-based fluorometric analysis; assay type: functional, cell-based; settings: NCI-H460, 48 h
A549 = assay: Cell cycle arrest in human A549 cells assessed as accumulation at G1 phase at 1.4 uM after 24 hrs by propidium iodide staining based flow cytometry (reference value: 67.52%); assay type: functional
[7] = read-out: LC50 (the source's name)

COc1ccc(-c2nc3sc(-c4ccc(Cl)cc4)cn3n2)cc1
inhibition of growth at 10 µM (CCRF-CEM): 30.5% | inhibition of growth at 10 µM (K562): 38.5% | inhibition of growth at 10 µM (NCI-H522): 39% | inhibition of growth at 10 µM (COLO 205): 47.5% | inhibition of growth at 10 µM (HCT-116): -16% | inhibition of growth at 10 µM (SF-295): 75.8% | inhibition of growth at 10 µM (SNB-19): -1.95% | inhibition of growth at 10 µM (LOX IMVI): 45.8% | inhibition of growth at 10 µM (UACC-257): 15.4% | inhibition of growth at 10 µM (UACC-62): 31.4% | inhibition of growth at 10 µM (OVCAR-3 [1]): 75.3% | inhibition of growth at 10 µM (OVCAR-4): -63.3% | inhibition of growth at 10 µM (SK-OV-3): 50.5% | inhibition of growth at 10 µM (A498): -25.8% | inhibition of growth at 10 µM (SN12C): 94.7% | inhibition of growth at 10 µM (TK-10): -30.8% | inhibition of growth at 10 µM (DU-145 [2]): 19.3% | inhibition of growth at 10 µM (Hs-578T): 73% | inhibition of growth at 10 µM (T47D): 45.1% | inhibition of growth at 10 µM (MDA-MB-468): 66.6% | GI50 (EKVX): 4.82 µM | TGI (EKVX): > 50 µM | CC50 (EKVX; [7]): > 50 µM | GI50 (HOP-92): 0.91 µM | TGI (HOP-92): 7.61 µM | CC50 (HOP-92; [7]): > 50 µM | GI50 (NCI-H460 [3]): 1.33 µM | TGI (NCI-H460 [3]): 4 µM | CC50 (NCI-H460 [3]; [7]): 18.9 µM | GI50 (MDA-MB-435): > 50 µM | TGI (MDA-MB-435): > 50 µM | CC50 (MDA-MB-435; [7]): > 50 µM | GI50 (OVCAR-3 [4]): 1.72 µM | TGI (OVCAR-3 [4]): 7.2 µM | CC50 (OVCAR-3 [4]; [7]): > 50 µM | GI50 (ACHN): 0.927 µM | TGI (ACHN): 2.02 µM | CC50 (ACHN; [7]): 4.41 µM | GI50 (PC-3): > 50 µM | TGI (PC-3): > 50 µM | CC50 (PC-3; [7]): > 50 µM | GI50 (DU-145 [5]): > 50 µM | TGI (DU-145 [5]): > 50 µM | CC50 (DU-145 [5]; [7]): > 50 µM | IC50 (MIA PaCa-2): 2.6 µM | IC50 (HT-29): 2.4 µM | IC50 (NCI-H460 [6]): 1.6 µM | Activity (A549): 58.11%
